Results published in US20160252532A1, “pH-Biosensors Based on Compounds Produced From Pyruvic Acid For Magnetic Resonance Imaging and Spectroscopy and Their Uses” (TECHNISCHE UNIVERSITÄT MÜNCHEN, priority 2013, published 2016).

Key:
MCF-7 tumor cells = assay: 13C-OMPD in cell culture medium with MCF-7 tumor cells immobilized in alginate beads (extracellular pH); format: cell-based; conditions: ca. 6 mM fully-labeled 13C-OMPD, ca. 10 Mio. MCF-7 cells, 10 hours
Experimental: Ten ^13C-spectra (proton decoupled) of ca. 6 mM fully-labeled ^13C-OMPD dissolved in cell culture medium with ca. 10 Mio. MCF-7 tumor cells immobilized in alginate beads were acquired during a total time of 10 hours within every hour.
The pH sensitive OMPD-peaks 1, 5 and 6 of zymonic acid were also observed in ^13C-NMR spectra of ^13C-OMPD dissolved in cell culture medium with MCF-7 tumor cells immobilized in alginate beads.

[1] = Stability in aqueous solution; format: physicochemical
Experimental: An exemplary ^13C spectrum (left column) and ^1H spectrum (right column) of zymonic acid produced from [1-^13C]-pyruvic acid. The relevant peaks 1 to 5, which shift in dependency of the pH value of the sample, are marked. The proton spectra show a buffered solution of zymonic acid in water and D2O, once measured right after preparation of the solution (top right) and 24 h later (bottom right).
The assignment of the NMR-peaks of zymonic acid was done using NMR prediction software (ChemDraw®) and standard 1D- and 2D-NMR-spectroscopy (see FIG. 5). […] The relevant peaks 1 to 5, which shift in dependency of the pH value of the sample, are marked. […] The proton spectra show a buffered solution of zymonic acid in water and D2O, once measured right after preparation of the solution (top right of FIG. 5) and 24 h later (bottom right of FIG. 5).

HeLa cells = assay: MTT assay cell viability (cytotoxicity test); format: cell-based; conditions: 0.4 to 50 mM, 24 hours, up to tested concentration of 50 mM, ZA 100% pure, OMPD 80% OMPD/20% ZA
Experimental: MTT assay with HeLa cells for testing cell viability after exposure to (A) OMPD and (B) zymonic acid (ZA) (0.4 to 50 mM) for 24 hours.
(12C, ZA: 100% pure; OMPD: 80% OMPD, 20% ZA).
Purified zymonic acid and OMPD were tested in a MTT assay with HeLa cells for testing cell viability after exposure to each substance at concentrations of 0.4 to 50 mM for 24 hours. After 24 hours incubation time, both substances are not cytotoxic up to the tested concentration of 50 mM.

rat bladder = assay: In vivo pH determination in rat bladder with copolarized zymonic acid and urea; conditions: injection into rat bladder via catheter, 10 mm slice
Source text: FIG. 19. Copolarization of zymonic acid and urea, injection into the rat bladder via a catheter.
A 10 mm slice covering the bladder volume was chosen.
6 injections of copolarized zymonic acid in healthy rats via a catheter directly into the bladder followed by pH-imaging and pH-control of the urine before an after injection by pH-electrode (see FIG. 19).

rats = assay: Toxicity tests in rats; format: in vivo
Experimental: Toxicity tests with a volume of 5 mL/kg at an injection rate of 0.2 mL/s for three different concentrations (20 mM (A), 40 mM (B), 80 mM (C)). Injection solution contained 80 mM Tris buffer solution, titrated with 1M NaOH to pH 7.4.
20 mM, 40 mM, and 80 mM zymonic acid were injected into 3 rats within one week with 1 day break in between each injection (see FIG. 14).
Blood pressure, heart rate, blood oxygenation and animal temperature were monitored 10 minutes before and after the injection.

[2] = cited from earlier work

metabolism within tumor cells (MCF-7 tumor cells) | stability in aqueous solutions [1] | SMILES | cytotoxicity (cell viability, MTT) (HeLa cells) | agreement of NMR-measured pH with electrode pH (rat bladder) | decomposition in buffered solution ([1]; buffered solution in water and D2O, 24 hours, also cites Montgomery et al., 1956) | behaviour of the animals (rats; 20, 40 and 80 mM injections) | survival after injections (rats; 20, 40 and 80 mM, 5 mL/kg, 3 rats, injections within one week) | health problems (rats; 20, 40 and 80 mM, even after 3 days post last injection) | pKa of the enolic group [2]
not metabolized within tumor cells | stable in aqueous solutions | C/C(=C/C(=O)C(=O)O)C(=O)O [OMPD, (Z)-4-methyl-2-oxopent-3-enedioic acid] | not cytotoxic |  |  |  |  |  | 
 |  | CC1(C(=O)O)C=C(O)C(=O)O1 (stereo not shown) [zymonic acid, 4-hydroxy-2-methyl-5-oxo-2,5-dihydrofuran-2-carboxylic acid] | not cytotoxic | Electrode pH measurements confirm the pH values measured by NMR spectroscopy | slowly decomposed into parapyruvate within a period of 24 hours | No unusual behaviour | survived all injections | did not show health problems | 6.95
